Consider 31 molecules from patent US4520007A, “Anti-coagulants of the 4-hydroxycoumarin type and rodenticidal compositions (baits) comprising such anti-coagulants” (priority 1982, dated 1985).

The structures appear in SMILES notation. “Also recorded” adds a separate entry of the source. Where two headings read alike, the source gives them in different places.

The test system of experiment [1] is Prothrombin time (blood clotting). Put plainly: Prothrombin time ED50 (3 days after intraperitoneal injection). Conditions: for ED50: Rattus norvegicus, S100, ip, 72 h, read-out: 3-day ED50 (Prothrombin time ED50); for anticoagulant activity (comparison in words): compared with Brodifacoum or Difenacoum. The class given is in vivo, rat (male Wistar strain). As to the method:
Compounds in accordance with the invention, and other substituted 4-hydroxy coumarin compounds not within the invention, including Brodifacoum, Difenacoum and Warfarin, were tested as described in the following examples. The Prothrombin time ED50 value is the most reliable method for measuring anticoagulant activity. The LD50 value is of significance in regard to the potency of the compound as a rodenticide.
A preliminary test was carried out to reliably rank the potential rodenticides in order of anticogulant potency.
The method used involved measurement of the Prothrombin time (a measure of blood clotting properties) which is based on that described in a paper by Quick, A. J., Stanley-Brown, M. and Bankoft. F. W. entitled "Study of Coagulation Defect in Haemophilia and in Jaundice" in American Journal of Medical Science, Vol. 190, pages 501-511, 1935. The compounds were dissolved in a 1:9 v/v mixture of triethanolamine and polyethylene glycol 200 Mol Wt and serially diluted to give appropriate doses in 1 ml per 1 kg of animal body weight. The doses were injected into the test animals by the interperitoneal route. Three days after injection, blood was withdrawn by cardiac puncture whilst the test animals (200-250 g Wistar strain male rats) were held under "Halothane" anaesthesia.
Three rats were used in each test of a given compound, and three prothrombin time determinations were carried out on each blood sample. Prothrombin times were determined using the modified one-stage method of Quick. The percentage extension time of each prothrombin time was determined by assigning 0% extension time to an arbitary prothrombin resting time of 12 seconds, and 100% extension time to a prothrombin time elevated to an arbitrary 212 seconds. Results were plotted on log-probability graph paper, the best-line fitted, and the prothrombin the ED50 read from the graph.

In experiment [2] the test system is male and female mice (Cambridge Cream Resistant strain). Kind of experiment: 24h no-choice bait feeding test, resistant mice, deaths up to 21 days. As to conditions: 24h no-choice feed. The class given is in vivo, mouse (Cambridge Cream Resistant strain). As to the method: (§1) Appropriate amounts of Compounds 1,2,3 and 5 were dissolved in acetone and slurried onto rolled oats to give final bait concentrations of 20 ppm for Compounds 1 and 2; and 50 ppm for Compounds 3 and 5. Each bait was offered as a 24h no-choice feed to groups of five individually caged female rats Homozygous--Resistant Welsh strain; and similarly to groups of five individually caged male and female mice (Cambridge Cream Resistant strain).

For experiment [3], the system named is female rats Homozygous--Resistant Welsh strain. Kind of experiment: 24h no-choice bait feeding test, resistant rats, deaths up to 21 days. The class given is in vivo, rat (female. Conditions: 24h no-choice feed. The protocol: as §1
A further experiment relates to male rats, Wistar strain. Kind of experiment: 5 day no-choice bait feeding test, deaths up to 21 days. Conditions: 5 day no-choice feed. The class given is in vivo, rat (male. The protocol:
Appropriate amounts of Compounds 1, and 3 and 5 were dissolved in acetone, serially diluted, and slurried onto rolled oats to give final bait concentrations of 5.0, 2.0, 0.5 and 0.2 ppm for Compound 1 and 20.0, 10.0, […] and 2.0 ppm for Compounds 3 and 5. Each bait was offered as a 5 day no-choice feed to groups of five individually caged male rats, Wistar strain.

Experiment [4] concerns Warfarin-resistant rodents. Conditions: prior art; cited from earlier work.
A further experiment concerns vitamin K reductase. Conditions: literature: Fasco et al 1982; Park et al 1982; cited from earlier work.
For experiment [5], the system named is vitamin K 2, 3-epoxide reductase. As to conditions: literature: Fasco et al 1982; Park et al 1982; cited from earlier work.
[6] abbreviates: male Wistar rats 200-250 g, single intraperitoneal injection, blood taken three days after injection, ED50 = 50% extension of prothrombin time (0% = 12 s, 100% = 212 s).

One may read the ED50 as the dose at which the effect has come halfway, by size or by number of responders. In the case of `O=c1oc2ccccc2c(O)c1C1CC(Cc2ccc(Cl)cc2Cl)Cc2ccccc21` (stereo not drawn) [Compound 6], in experiment [1] (setting [6]), the 50% effective dose (ED50) was determined as 1.8 mg/kg.

Turning to `N#Cc1ccc(-c2ccc([C@H]3Cc4ccccc4[C@H](c4c(O)c5ccccc5oc4=O)C3)cc2)cc1` (relative stereo) [Compound 1], the “Death up to 21 days, mice” value in experiment [2] (bait 20.0 ppm) is 5/5. In addition, the median effective dose (ED50) in experiment [1] (setting [6]) is 0.45 mg/kg. Besides, the “Death up to 21 days, rats” value in experiment [3] (bait 20.0 ppm) is 5/5. In addition, the “Deaths up to 21 days” value with male rats, Wistar strain (bait 0.2 ppm) is 0/5; in the experiment on male rats, Wistar strain (bait 0.5 ppm), 5/5; in the experiment with male rats, Wistar strain (bait 2.0 ppm), 5/5; in the experiment on male rats, Wistar strain (bait 5.0 ppm), 5/5.

With `O=c1oc2ccccc2c(O)c1C1CC(c2ccc(-c3ccc(Br)cc3)cc2)Cc2ccccc21` (stereo not drawn) [Brodifacoum], the “effectiveness against Warfarin-resistant rodents” value in experiment [4] was “effective against Warfarin-resistant rodents; also recorded: effectiveness against Warfarin-resistant rodents”. Further, the “inhibiting ability, vitamin K reductase” value in the experiment with vitamin K reductase is given as “have this inhibiting ability”. For the same molecule, the ED50 in experiment [1] (setting [6]) turned out to be 0.28 mg/kg. Also, in experiment [1], the “anticoagulant activity (comparison in words)” value (from here on “anticoagulant activity”) is “particularly notable activity”. Also, the “inhibiting ability, vitamin K 2,3-epoxide reductase” value in experiment [5] is “have this inhibiting ability”.

As for `CC(=O)CC(c1ccccc1)c1c(O)c2ccccc2oc1=O` (stereo not drawn) [Warfarin], in the experiment on vitamin K reductase, the “inhibiting ability, vitamin K reductase” value was “have this inhibiting ability”. The ED50 in experiment [1] (setting [6]) came to 5.2 mg/kg. In addition, in experiment [5], the “inhibiting ability, vitamin K 2,3-epoxide reductase” value was “have this inhibiting ability”.

As for `O=c1oc2ccccc2c(O)c1[C@@H]1C[C@@H](c2ccc(OCc3ccccc3)cc2)Cc2ccccc21` (relative stereo) [Compound 14, reference compound], the ED50 in experiment [1] (setting [6]) was 4.3 mg/kg. The “anticoagulant activity” value in experiment [1] is “activity much lower than similarly structured Difenacourm”.

Turning to `O=c1oc2ccccc2c(O)c1C1CC(c2ccc(/C=C/c3ccccc3)cc2)Cc2ccccc21` (stereo not drawn) [Compound 22], the median effective dose (ED50) in experiment [1] (setting [6]) amounted to 0.8 mg/kg.

With `O=c1oc2ccccc2c(O)c1C1CC(c2c(Cl)cccc2Cl)Cc2ccccc21` (stereo not drawn) [Compound 26, reference compound], the 50% effective dose (ED50) in experiment [1] (setting [6]) amounted to 10 mg/kg.

With `N#Cc1ccc(COc2ccc(C3Cc4ccccc4C(c4c(O)c5ccccc5oc4=O)C3)cc2)cc1` (stereo not drawn) [Compound 12], the ED50 in experiment [1] (setting [6]) turned out to be 0.8 mg/kg.

As to `O=c1oc2ccccc2c(O)c1[C@@H]1C[C@@H](c2ccc(-c3ccc(C(F)(F)F)cc3)cc2)Cc2ccccc21` (relative stereo) [Compound 24, 3[3-(4'-trifluoromethyl-4-yl)-1,2,3,4-tetrahydro-1-naphthyl]-4hydroxycoumarin], the 50% effective dose (ED50) in experiment [1] (setting [6]) was 0.47 mg/kg.

For `O=c1oc2ccccc2c(O)c1C1CC(c2ccc(OCc3ccc(Br)cc3)cc2)Cc2ccccc21` (stereo not drawn) [Compound 11], the ED50 in experiment [1] (setting [6]) turned out to be 0.27 mg/kg. Besides, the “anticoagulant activity” value in experiment [1] is “activity greater than Brodifacoum”.

As for `O=c1oc2ccccc2c(O)c1C1CC(c2ccc(CCCc3ccc(Cl)cc3)cc2)Cc2ccccc21` (stereo not drawn) [Compound 23], in experiment [1] (setting [6]), the 50% effective dose (ED50) is 0.23 mg/kg. The “anticoagulant activity” value in experiment [1] is recorded as “activity greater than Brodifacoum”.

Regarding `O=c1oc2ccccc2c(O)c1C1CC(c2ccc(Oc3ccc(C(F)(F)F)cc3)cc2)Cc2ccccc21` (stereo not drawn) [Compound 20], the median effective dose (ED50) in experiment [1] (setting [6]) was determined as 0.23 mg/kg. Also, the “anticoagulant activity” value in experiment [1] is on record as “activity greater than Brodifacoum”.

For the molecule `N#Cc1ccc(C2Cc3ccccc3C(c3c(O)c4ccccc4oc3=O)C2)cc1` (stereo not drawn) [Compound 7], the ED50 in experiment [1] (setting [6]) came to 0.54 mg/kg.

As to `N#Cc1ccc(Oc2ccc(C3Cc4ccccc4C(c4c(O)c5ccccc5oc4=O)C3)cc2)cc1` (stereo not drawn) [Compound 10], in experiment [1] (setting [6]), the median effective dose (ED50) was 0.41 mg/kg.

For the molecule `O=c1oc2ccccc2c(O)c1C1CC(c2ccc(-c3ccccc3)cc2)Cc2ccccc21` (stereo not drawn) [Difenacoum], the “effectiveness against Warfarin-resistant rodents” value in experiment [4] is reported as “effective against Warfarin-resistant rodents”. The “inhibiting ability, vitamin K reductase” value with vitamin K reductase is reported as “have this inhibiting ability”. For the same molecule, the ED50 in experiment [1] came to 0.56 mg/kg. Besides, the “activity relative to Brodifacoum” value in experiment [1] (rat, in vivo) is recorded as “about 36%”. In addition, the “inhibiting ability, vitamin K 2,3-epoxide reductase” value in experiment [5] was “have this inhibiting ability”.

`CCCCCCC1Cc2ccccc2C(c2c(O)c3ccccc3oc2=O)C1` (stereo not drawn) [Compound 30, reference compound]: the ED50 in experiment [1] (setting [6]) is 14 mg/kg.

Regarding `O=c1oc2ccccc2c(O)c1C1CC(c2ccc(C(F)(F)F)cc2)Cc2ccccc21` (stereo not drawn) [Compound 3], the “Death up to 21 days, mice” value in experiment [2] (bait 50.0 ppm) is on record as 3/5. In addition, the ED50 in experiment [1] (setting [6]) turned out to be 0.59 mg/kg. Also, in experiment [3] (bait 50.0 ppm), the “Death up to 21 days, rats” value was 5/5. Also, the “Deaths up to 21 days” value in the experiment with male rats, Wistar strain (bait 2.0 ppm) is given as 5/5; with male rats, Wistar strain (bait 5.0 ppm) it was 5/5; in the experiment on male rats, Wistar strain (bait 10.0 ppm), 5/5; in the experiment on male rats, Wistar strain (bait 20.0 ppm), 5/5.

For `O=c1oc2ccccc2c(O)c1C1CC(c2ccc3c(c2)CCCC3)Cc2ccccc21` (stereo not drawn) [Compound 28, reference compound], in experiment [1] (setting [6]), the 50% effective dose (ED50) is 10 mg/kg.

On to `N#Cc1ccc(-c2ccc([C@@H]3Cc4ccccc4[C@H](c4c(O)c5ccccc5oc4=O)C3)cc2)cc1` (relative stereo) [Compound 2], for which the “Death up to 21 days, mice” value in experiment [2] (bait 20.0 ppm) is listed as 4/5. In experiment [1] (setting [6]), the ED50 was determined as 0.31 mg/kg. In addition, the “Death up to 21 days, rats” value in experiment [3] (bait 20.0 ppm) is reported as 5/5.

As for `O=c1oc2ccccc2c(O)c1C1CC(c2ccc([N+](=O)[O-])cc2)Cc2ccccc21` (stereo not drawn) [Compound 9], the median effective dose (ED50) in experiment [1] (setting [6]) was found to be 0.8 mg/kg.

As to `O=c1oc2ccccc2c(O)c1C1CC(c2ccc(CCc3ccc(Br)cc3)cc2)Cc2ccccc21` (stereo not drawn) [Compound 17], in experiment [1] (setting [6]), the median effective dose (ED50) was found to be 0.37 mg/kg.

In the case of `O=c1oc2ccccc2c(O)c1C1CC(CCCc2ccccc2)Cc2ccccc21` (stereo not drawn) [Compound 29, reference compound], the median effective dose (ED50) in experiment [1] (setting [6]) worked out at 14.1 mg/kg.

`O=c1oc2ccccc2c(O)c1C1CC(c2ccc(OCc3ccc(Cl)c(Cl)c3)cc2)Cc2ccccc21` (stereo not drawn) [Compound 16]: the ED50 in experiment [1] (setting [6]) was found to be 0.43 mg/kg.

For the molecule `O=c1oc2ccccc2c(O)c1C1CC(c2ccc(-c3ccc(Br)cc3)o2)Cc2ccccc21` (stereo not drawn) [Compound 8], in experiment [1] (setting [6]), the ED50 turned out to be 0.78 mg/kg.

Turning to `O=c1oc2ccccc2c(O)c1C1CC(c2ccc(CCc3ccc(Cl)cc3)cc2)Cc2ccccc21` (stereo not drawn) [Compound 18], the 50% effective dose (ED50) in experiment [1] (setting [6]) stood at 0.27 mg/kg. Moreover, the “anticoagulant activity” value in experiment [1] is listed as “activity greater than Brodifacoum”.

As to `O=c1oc2ccccc2c(O)c1C1CC(c2ccc(/C=C/c3ccc(Br)cc3)cc2)Cc2ccccc21` (stereo not drawn) [Compound 21], in experiment [1] (setting [6]), the 50% effective dose (ED50) was determined as 0.8 mg/kg.

`O=c1oc2ccccc2c(O)c1C1CC(c2ccc(OCc3ccc(F)cc3)cc2)Cc2ccccc21` (stereo not drawn) [Compound 15]: in experiment [1] (setting [6]), the ED50 came out at 0.47 mg/kg.

`O=c1oc2ccccc2c(O)c1[C@@H]1C[C@H](c2ccc(-c3ccc(C(F)(F)F)cc3)cc2)Cc2ccccc21` (relative stereo) [Compound 25, 3[3-(4'-trifluoromethyl-4-yl)-1,2,3,4-tetrahydro-1-naphthyl]-4hydroxycoumarin]: the ED50 in experiment [1] (setting [6]) was 0.46 mg/kg.

Turning to `O=c1oc2ccccc2c(O)c1C1CC(c2ccc(OCc3ccc(C(F)(F)F)cc3)cc2)Cc2ccccc21` (stereo not drawn) [Compound 13], the 50% effective dose (ED50) in experiment [1] (setting [6]) came out at 0.32 mg/kg.

`O=c1oc2ccccc2c(O)c1C1CC(c2ccccc2-c2ccc(C(F)(F)F)cc2)Cc2ccccc21` (stereo not drawn) [Compound 27, reference compound]: the ED50 in experiment [1] (setting [6]) is above 10 mg/kg.

On to `N#Cc1ccc(CCc2ccc(C3Cc4ccccc4C(c4c(O)c5ccccc5oc4=O)C3)cc2)cc1` (stereo not drawn) [Compound 19], for which, in experiment [1] (setting [6]), the median effective dose (ED50) worked out at 0.9 mg/kg.
